Where two headings read alike, the source gives them in different places.
How the values were obtained:
[1] = system: NO production in LPS-stimulated RAW 264.7 murine macrophage cells; assay: Nitric oxide production assay (Griess) in LPS-stimulated RAW 264.7 cells; type: cell-based
Procedure: The anti-inflammatory activity of the extracts and compounds was assessed according to the procedure of Ratnayake et al. (2013). RAW 264.7 murine macrophage cells (passage number ≤ 6) were grown in Dulbecco’s Modified Eagle’s Medium (DMEM) supplemented with 10% fetal bovine serum (FBS) and 1% antibiotic-antimycotic solution. At 24 h post-incubation, the cells (200,000 cells/mL) were treated with extracts (50 and 5 µg/mL) or pure compounds in triplicate. For pure compounds, a 20 mM stock was prepared in DMSO and serially diluted to generate eight concentrations ranging from 0.032–100 µM. DMSO (0.5%) served as the solvent control. Dexamethasone (50 µM) and tBHQ (10 µM) served as positive controls. LPS (1 µg/mL) was added to each well after 1 h of extract or compound pre-treatment. A reverse treatment was also done for compounds, where cells were first pre-treated with LPS (1 µg/mL) prior to the addition of the compound.
After 24 h of incubation, NO production was assessed by measuring the nitrite concentration using the Griess Reagent System (Promega, Madison, WI, USA) according to the manufacturer’s protocol. Results were presented as %NO production relative to LPS-stimulated solvent control.

[2] = system: Nrf2-luciferase reporter MCF7 stable cells; assay: Nrf2-ARE activation luciferase reporter assay; type: cell-based
Procedure: Nrf2-luciferase reporter MCF7 stable cells (Signosis, Inc.) were grown in high glucose DMEM (Hyclone, Logan, UT, USA) supplemented with 10% FBS, 1% antibiotic-antimycotic solution, and 75 µg/mL geneticin. A 100-µL cell suspension was plated with a seeding density of 20,000 cells/well. The plate was incubated at 37 °C with 5% CO2 for 24 h prior to treatment. Cells were treated with compounds at half-log dilution, ranging from 0.032–100 µM (0.5% DMSO). DMSO (0.5%) and tBHQ (0.01–32 μM) served as solvent and positive controls, respectively. After 8-, 12-, and 16-h incubation, the medium was removed, and cells were washed with 100 µL 1X PBS. Lysis buffer (Signosis, Inc.) was added, and the plate was further incubated for 15 min at room temperature. A 100-µL firefly luciferase substrate (Signosis, Inc.) was added, and luminescence was measured. Nrf2 fold activation of treated cells was assessed relative to the solvent control. The assay was done in two independent experiments in triplicate.

[3] = system: LPS-stimulated RAW 264.7 murine macrophage cells; assay: Tetrazolium-based (MTT) cell viability assay; conditions: for CC50: Mus musculus, RAW264.7, 24 h; for decrease in cytotoxicity relative to 1: from cell viability IC50, compound pre-treatment + LPS; for IC50: read-out: Cell Viability (IC50)
Procedure: MTT solution (5 mg/mL in PBS, 15 µL) was added to the original assay plate, and the reaction was terminated with the addition of acidified sodium dodecyl sulfate (SDS) solution after 2 h. Absorbance was measured at 570 nm. […] The concentration-dependent response curve for cell viability of the pure compounds was generated, and the IC50 was determined using a non-linear regression, inhibitor vs. normalized response—variable slope analysis. Samples were tested in at least one independent experiment performed in triplicate.
Statistical comparison of the cell viability IC50 of 2–6 relative to xestoquinone (1) was analyzed using one-way ANOVA and Tukey’s post-hoc test at p-value < 0.05. Comparison of the IC50 values from NO production and cytotoxicity assessment for each of the compounds were analyzed using a one-tailed unpaired t-test at p-value < 0.05.

[4] = Direct antioxidant activity, DPPH scavenging assay; conditions: 30 min, room temperature
Procedure: The direct antioxidant activity of 1–6 was determined using the 2,2-diphenyl-1-picrylhydrazyl (DPPH) scavenging method. Half-log dilution of 1–6 (0.032 to 100 µM) was prepared in MeOH. Then, 20 μL of 1 mM DPPH was dispensed into each well and incubated for 30 min at room temperature with shaking. Absorbance was measured at 517 nm, and results are presented as % radical scavenging activity (% RSA) relative to the solvent control. Ascorbic acid (0.032–100 µM) and tBHQ (0.032–100 µM) served as positive controls, while 0.5% DMSO served as solvent control. The analysis was done in triplicate.

Il1b = assay: qRT-PCR differential gene expression, Il1b; type: cell-based, murine; conditions: 10 μM, 12 h, LPS-stimulated RAW 264.7; relative to LPS-stimulated solvent control
Procedure: (§1) RAW 264.7 cells (passage number ≤ 6) were seeded in a 6-well microplate at a density of 2.5 × 10^5 cells/well and incubated for 24 h at 37 °C with 5% CO2 prior to treatment. Cells were treated with 10 μM compound or 0.5% DMSO in duplicate and incubated for 1 h before stimulation with LPS (1 µg/mL). At 12 h post-treatment, total RNA was extracted with Qiagen RNeasy extraction kit (Germantown, MD, USA) according to manufacturer’s protocol. RNA was reverse-transcribed from 2 µg of total RNA using SuperScript IV Reverse Transcriptase (Invitrogen, Waltham, MA, USA), 1 mM dNTP, and Oligo (dT)12–18 primer (0.5 µg/mL, Invitrogen). Quantitative real time-PCR (qRT-PCR) was performed in ABI 7500 Fast Real-Time PCR (Applied Biosystems, Bedford, MA, USA). qRT-PCR was performed as a 25 µL total reaction mixture, composed of 1X TaqMan® universal master mix, 1X TaqMan® gene expression assay mix, 2 µL of cDNA, and 9.25 µL RNase-free sterile water. Analyses were carried out using probes for Il1b (Assay ID Mm00434228_m1), Nos2 (Mm00440502_m1), and Nqo1 (Mm01253561_m1). The thermocycler program was designed as follows: 50 °C for 2 min, 95 °C for 10 min, and 40 cycles of 95 °C for 15 s and 60 °C for 1 min. Mouse Gapdh (Mm99999915_g1) was used as the internal control for normalization. The measurement of gene expression is reported in cycles to threshold (Ct) PCR, whose value represents the cycle number at which the amount of amplified DNA of the target gene reached the threshold level. The relative gene expression was analyzed using the comparative Ct method to compare the Ct value of the target gene to the internal control in a treatment sample. Statistical analysis on the relative gene expression was carried out using one-way ANOVA and Tukey’s multiple comparison test with p-value < 0.05. Analysis was done in two independent experiments with three technical replicates each.

Nqo1 = assay: qRT-PCR differential gene expression, Nqo1; type: cell-based, murine; conditions: 10 μM, 12 h, LPS-stimulated RAW 264.7
Procedure: as §1

[5] = system: Nrf2-luciferase reporter MCF7 stable cells; assay: Cytotoxicity counter-screen on Nrf2-luciferase reporter MCF7 cells; type: cell-based
Procedure: Absorbance was measured at 570 nm. […] For the cytotoxicity counter-screen, Nrf2-luciferase reporter MCF7 stable cells were grown, seeded, and treated identically with the reporter assay. Cell viability was done using the tetrazolium reagent, as indicated previously.

Nos2 = assay: qRT-PCR differential gene expression, Nos2; type: cell-based, murine; conditions: 10 μM, 12 h, LPS-stimulated RAW 264.7; relative to LPS-stimulated solvent control
Procedure: as §1

[6] = Mus musculus, RAW264.7, 24 h, Compound pre-treatment 1 h + LPS (1 µg/mL), 24 h, mean ± SD of two independent experiments, read-out: NO Production (IC50)
[7] = Mus musculus, RAW264.7, 24 h, LPS pre-treatment 1 h + compound, single experiment in triplicate, read-out: NO Production (IC50)
[8] = read-out: Cell Viability (IC50), Compound pre-treatment 1 h + LPS, 24 h, mean ± SD of two independent experiments
[9] = read-out: Cell Viability (IC50), LPS pre-treatment 1 h + compound, single experiment in triplicate
[10] = Compound pre-treatment 1 h + LPS (1 µg/mL), 24 h, mean ± SD of two independent experiments, read-out: NO Production (IC50)
[11] = LPS pre-treatment 1 h + compound, single experiment in triplicate, read-out: NO Production (IC50)
[12] = Compound pre-treatment 1 h + LPS, 24 h, mean ± SD of two independent experiments
[13] = LPS pre-treatment 1 h + compound, single experiment in triplicate
[14] = both timepoints (12 h and 16 h)

CC12CCCc3coc(c31)C(=O)c1cc3c(cc12)C(=O)C=C(CO)C3=O (stereo not shown) [Compound 4, 14-hydroxymethylxestoquinone]
IC50 [1, 6]: 2.5 ± 0.39 µM | IC50 [1, 7]: 1.8 µM | Nrf2 activation ([2]; 12 h posttreatment): modest increase in Nrf2 activation | CC50 [3, 8]: 16 ± 0.68 µM | CC50 [3, 9]: 27 µM | decrease in cytotoxicity relative to 1 [3]: more than two

C[C@@H]1C[C@H]2[C@@H]3CCC4=CC(=O)C=C[C@]4(C)[C@@]3(F)[C@@H](O)C[C@]2(C)[C@@]1(O)C(=O)CO [dexamethasone, reference compound]
reduction of NO production ([1]; 50 µM): 50% | IC50 [1, 6]: > 0.032 µM | IC50 [1, 7]: > 0.032 µM | CC50 [3, 8]: > 100 µM | CC50 [3, 9]: > 100 µM

CC(C)(C)c1cc(O)ccc1O [tBHQ, reference compound]
reduction of NO production ([1]; 10 µM): 90% | IC50 [1, 10]: 1.2 ± 0.23 µM | IC50 [1, 11]: 0.42 µM | IC50 [4]: 11 µM | downregulation of Il1b expression (Il1b): six | upregulation in Nqo1 expression (Nqo1): 6.3 fold | Nrf2 activation ([2]; 12 h, 32 μM): 18 fold | Nrf2 activation ([2]; 16 h, 10 μM): four | Nrf2 activation ([2]; 16 h, 32 μM): 19 fold | IC50 [3, 12]: > 100 µM | IC50 [3, 13]: > 100 µM | cytotoxicity to Nrf2-MCF7 cells ([5]; 12 h, 10 and 32 μM): no observable cytotoxicity | cytotoxicity to Nrf2-MCF7 cells ([5]; 16 h, 10 and 32 μM): non-cytotoxic | downregulation of LPS-induced Nos2 expression (Nos2): 3.8 fold

C[C@@]12CCCc3coc(c31)C(=O)c1cc3c(cc12)C(=O)C1=C(NCCS1(=O)=O)C3=O [Compound 2, adociaquinone B]
IC50 ([1]; Mus musculus, RAW264.7, 24 h, read-out: NO Production (IC50), Compound pre-treatment 1 h + LPS (1 µg/mL), 24 h, mean ± SD of two independent experiments): 1.9 ± 0.72 µM | IC50 ([1]; Mus musculus, RAW264.7, 24 h, read-out: NO Production (IC50), LPS pre-treatment 1 h + compound, single experiment in triplicate): 1.5 µM | downregulation of Il1b expression (Il1b): 12.1 fold | upregulation in Nqo1 expression (Nqo1): did not change the Nqo1 expression | Nrf2 activation [2, 14]: Nrf2 activation was not observed | CC50 [3, 8]: 5.3 to 6.4 µM | CC50 [3, 9]: 4.2 µM | downregulation of LPS-induced Nos2 expression (Nos2): unaffected

O=C1O[C@H]([C@@H](O)CO)C(O)=C1O [ascorbic acid]
IC50 [4]: 13 µM

C[C@@]12CCCc3coc(c31)C(=O)c1cc3c(cc12)C(=O)C=CC3=O [Compound 1, xestoquinone]
IC50 [1, 6]: 1.2 ± 0.1 µM | IC50 [1, 7]: 0.99 µM | downregulation of Il1b expression (Il1b): 2.6 fold | upregulation in Nqo1 expression (Nqo1): did not change the Nqo1 expression | Nrf2 activation ([2]; 12 h, 1.0 μM, relative to solvent control): at least three | Nrf2 activation ([2]; 12 h, 3.2 μM): at least three | Nrf2 activation ([2]; 12 h posttreatment): modest increase in Nrf2 activation | Nrf2 activation ([2]; 16 h, 1.0 μM): four | Nrf2 activity in reporter assay ([2]; 16 h incubation): significant activation | CC50 [3, 8]: 6 ± 3.2 µM | CC50 [3, 9]: 4.9 µM | cytotoxicity to Nrf2-MCF7 cells ([5]; 12 h, 1.0 and 3.2 μM): no cytotoxicity | cytotoxicity to Nrf2-MCF7 cells ([5]; 16 h, 1.0 and 3.2 μM): no significant cytotoxic effects | downregulation of LPS-induced Nos2 expression (Nos2): 2.7 fold

CC12CCCc3coc(c31)C(=O)c1cc3c(cc12)C(=O)C(CO)=CC3=O (stereo not shown) [Compound 5, 15-hydroxymethylxestoquinone]
IC50 [1, 6]: 4 ± 2.4 µM | IC50 [1, 7]: 4.7 µM | downregulation of Il1b expression (Il1b): 2.1 fold | upregulation in Nqo1 expression (Nqo1): 3.0 fold | CC50 [3, 8]: > 32 µM | CC50 [3, 9]: > 32 µM | decrease in cytotoxicity relative to 1 [3]: five | downregulation of LPS-induced Nos2 expression (Nos2): 2.6 fold

adociaquinone A [Compound 3]
IC50 [1, 10]: 2.1 ± 0.17 µM | IC50 [1, 11]: 1.5 µM | Nrf2 activation [2, 14]: Nrf2 activation was not observed | IC50 [3, 12]: 6.4 ± 1.2 µM | IC50 [3, 13]: 5.9 µM
